Assay results reported in PMC9555310, “Novel inhibitors and activity-based probes targeting serine proteases” (Frontiers in Chemistry, 2022).

Assays:
trypsin = biological target: T1, trypsin (Sus scrofa, UniProt P00761); test: Activity-based profiling of trypsin (SDS-PAGE, streptavidin-HRP western blot); type: binding, porcine; conditions: added 30 min prior to NAP830
T1 construct: purchased Sigma-Aldrich; host or cells: porcine pancreas
Description: Samples of recombinant protease (trypsin, plasmin, thrombin, chymotrypsin, or HNE, as indicated in the relevant figure legends) were treated with each of the newly synthesized compounds at a concentration of 50 μM, for 30 min, at 37°C. A control sample (no ABP) was prepared by treating the recombinant protease with solvent vehicle (DMF) only, used to prepare the stock solution of each ABP. Samples were also pre-treated (±90°C for 30 min) before being incubated with each putative ABP. With trypsin and thrombin, further samples were prepared where Z-Arg^P-(OPh)2 or NAP559, respectively, was added 30 min prior to the addition of the ABP under examination. All treated samples were then denatured with SDS containing reducing treatment buffer (10 min at 95°C), followed by resolution by SDS-PAGE and subjected to Western blotting. Resolved proteins were then transferred onto the nitrocellulose membrane and labeled with streptavidin-HRP. […]
Following transfer, the extra protein binding sites on the membrane were blocked by addition of 3% (w/v) BSA in TBST (20 mM Tris, 137 mM NaCl, 1% (v/v) Tween 20, pH 7.6) and agitated gently at room temperature for 30 minutes. The biotin-labelled proteases were then detected by addition of Streptavidin-HRP (Vector Laboratories) in 3% (w/v) BSA in TBST at a concentration of 1:20000, for 1 hour at room temperature. […]

neutrophil elastase (NE) = biological target: T2, neutrophil elastase (NE) (Homo sapiens, UniProt P08246); design: method as in Gilmore et al. (2009); conditions: ref Gilmore et al. (2009); cited from earlier work
T2 construct: purchased Calbiochem
T2 sequence (P08246 30-267): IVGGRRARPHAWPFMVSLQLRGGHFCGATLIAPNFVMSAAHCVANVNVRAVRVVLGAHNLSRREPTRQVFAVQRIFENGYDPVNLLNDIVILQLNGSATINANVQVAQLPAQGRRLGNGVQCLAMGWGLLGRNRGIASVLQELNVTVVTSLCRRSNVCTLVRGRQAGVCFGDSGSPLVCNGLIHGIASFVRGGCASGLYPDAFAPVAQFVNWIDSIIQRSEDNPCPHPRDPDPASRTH

T1 sequence (P00761 9-231): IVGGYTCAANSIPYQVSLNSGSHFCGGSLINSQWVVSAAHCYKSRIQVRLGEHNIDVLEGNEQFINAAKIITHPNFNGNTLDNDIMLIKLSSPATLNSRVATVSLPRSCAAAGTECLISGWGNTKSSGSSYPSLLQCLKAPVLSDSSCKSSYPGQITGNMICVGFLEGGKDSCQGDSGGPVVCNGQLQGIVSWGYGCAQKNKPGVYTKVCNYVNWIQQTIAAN

NC(N)=NCCCC(NC(=O)OCc1ccccc1)P(=O)(Oc1ccccc1)Oc1ccccc1 (centres unmarked) [Z-Arg^P-(OPh)2, reference compound]
effect of pre-treatment of trypsin on signal detected by NAP830 (trypsin): quenching/diminution in the signal detected by NAP830

biotin-PEG-succinyl-Val^P-(OPh)2 [QUBEL1]
k 3 / K i (neutrophil elastase (NE)): 215 M⁻¹ s⁻¹
